Reference: US20060052387A1, “Organic compounds” (priority 2002, published 2006)
Like-named read-outs stand apart in the source and are kept apart here.

Assays:
[1] = system: M-CSF-stimulated human monocytes; conditions: for numbers of viable cells after the incubation period / numbers of viable cells after the incubation period, Mean: M-CSF 20 ng/mL + DMSO, 24 hours; for numbers of viable cells after the incubation period, Mean: Mean of 3 experiments
[2] = system: Caspase-3 activity in M-CSF-stimulated human monocytes; conditions: M-CSF 20 ng/mL + DMSO, 18 hours
Text: Caspase-3 is a cysteine aspartate protease involved in the cascade leading to DNA fragmentation. Caspase-3 cleaves one subunit of a dimer called DNA fragmentation factor (DFF) at a tetrapeptide sequence DEVD, the other subunit then activates a nuclease that degrades DNA. […] Caspase-3 activity is defined as the amount of free amino trifluoromethylcoumarin (AFC) released from the caspase-3 selective fluorosubstrate DEVD-AFC measured by fluorometry. In the following table, caspase activity is given in pmol/min/mg.

Akt = conditions: SALT I 1 or 5 NM (so in the source); M-CSF 100 ng/mL for three minutes
Experimental: Akt1 also called protein kinase B is a serine/threonine kinase involved in a signaling pathway activated by the Bcr-Ab1 activity. Phosphorylated Akt1 phosphorylates cellular proteins and promotes cell proliferation and cell survival.
In vitro Akt kinase assays were performed as described in Kelley et al., supra. Briefly, monocytes were incubated overnight with M-CSF (20 ng/mL), serum-starved for 1.5 hours. […] Akt protein was immunoprecipitated from the cell lysate. The blot was probed with anti-phospho-threonine-Akt, stripped and re-probed for total Akt.

Structure (SMILES): CS(=O)(=O)O.Cc1ccc(NC(=O)c2ccc(CN3CCN(C)CC3)cc2)cc1Nc1nccc(-c2cccnc2)n1 [SALT I]
- numbers of viable cells after the incubation period ([1]; Experiment 1, SALT I 1 pM (so in the source)): 130
- numbers of viable cells after the incubation period ([1]; Experiment 1, SALT I 5 pM (so in the source)): 156
- numbers of viable cells after the incubation period ([1]; Experiment 1, SALT I 10 pM (so in the source)): 138
- numbers of viable cells after the incubation period ([1]; Experiment 1, SALT I 50 pM (so in the source)): 46
- numbers of viable cells after the incubation period ([1]; Experiment 1, SALT I 100 pM (so in the source)): 15
- numbers of viable cells after the incubation period ([1]; Experiment 2, SALT I 1 pM (so in the source)): 79
- numbers of viable cells after the incubation period ([1]; Experiment 2, SALT I 5 pM (so in the source)): 47
- numbers of viable cells after the incubation period ([1]; Experiment 2, SALT I 10 pM (so in the source)): 46
- numbers of viable cells after the incubation period ([1]; Experiment 2, SALT I 50 pM (so in the source)): 7
- numbers of viable cells after the incubation period ([1]; Experiment 2, SALT I 100 pM (so in the source)): 11
- numbers of viable cells after the incubation period ([1]; Experiment 3, SALT I 1 pM (so in the source)): 143
- numbers of viable cells after the incubation period ([1]; Experiment 3, SALT I 5 pM (so in the source)): 75
- numbers of viable cells after the incubation period ([1]; Experiment 3, SALT I 10 pM (so in the source)): 58
- numbers of viable cells after the incubation period ([1]; Experiment 3, SALT I 50 pM (so in the source)): 36
- numbers of viable cells after the incubation period ([1]; Experiment 3, SALT I 100 pM (so in the source)): 16
- number of monocytes surviving at 18 hours (in words) ([1]; M-CSF stimulated monocytes, 18 hours): reduces
- numbers of viable cells after the incubation period, Mean ([1]; SALT I 1 pM (so in the source)): 117
- numbers of viable cells after the incubation period, Mean ([1]; SALT I 5 pM (so in the source)): 93
- numbers of viable cells after the incubation period, Mean ([1]; SALT I 10 pM (so in the source)): 81
- numbers of viable cells after the incubation period, Mean ([1]; SALT I 50 pM (so in the source)): 30
- numbers of viable cells after the incubation period, Mean ([1]; SALT I 100 pM (so in the source)): 14
- caspase activity ([2]; Donor 1, SALT I 0.1 pM (so in the source)): 156 pmol/min/mg
- caspase activity ([2]; Donor 1, SALT I 1 pM (so in the source)): 356 pmol/min/mg
- caspase activity ([2]; Donor 1, SALT I 5 pM (so in the source)): 573 pmol/min/mg
- caspase activity ([2]; Donor 1, SALT I 10 pM (so in the source)): 629 pmol/min/mg
- caspase activity ([2]; Donor 2, SALT I 0.1 pM (so in the source)): 220 pmol/min/mg
- caspase activity ([2]; Donor 2, SALT I 1 pM (so in the source)): 299 pmol/min/mg
- caspase activity ([2]; Donor 2, SALT I 5 pM (so in the source)): 329 pmol/min/mg
- caspase activity ([2]; Donor 2, SALT I 10 pM (so in the source)): 407 pmol/min/mg
- Akt phosphorylation (in words) (Akt): Decreases
